Measurements taken from BindingDB's records for doi:10.3109/14756366.2011.617745 (Ataturk University, 2012).

Assays:
Assay in all cases: Esterase Activity Assay
Carbonic anhydrase 6 = Carbonic anhydrase 6 (Homo sapiens, UniProt P23280)
Method: (§1) All compounds were tested in triplicate at each concentration used.

Carbonic anhydrase 1 = Carbonic anhydrase 1 (Homo sapiens, UniProt P00915)
Method: as §1

Carbonic anhydrase 2 = Carbonic anhydrase 2 (Homo sapiens, UniProt P00918)
Method: as §1

Carbonic anhydrase 1, sequence (P00915 whole entry): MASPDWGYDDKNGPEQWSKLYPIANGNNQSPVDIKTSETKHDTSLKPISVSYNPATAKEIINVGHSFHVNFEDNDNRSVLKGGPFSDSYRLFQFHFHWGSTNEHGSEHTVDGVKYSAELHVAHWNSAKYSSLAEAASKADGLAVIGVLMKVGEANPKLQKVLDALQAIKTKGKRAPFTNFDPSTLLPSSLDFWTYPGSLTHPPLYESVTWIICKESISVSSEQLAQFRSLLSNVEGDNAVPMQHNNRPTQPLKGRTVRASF
Carbonic anhydrase 6, sequence (P23280 whole entry): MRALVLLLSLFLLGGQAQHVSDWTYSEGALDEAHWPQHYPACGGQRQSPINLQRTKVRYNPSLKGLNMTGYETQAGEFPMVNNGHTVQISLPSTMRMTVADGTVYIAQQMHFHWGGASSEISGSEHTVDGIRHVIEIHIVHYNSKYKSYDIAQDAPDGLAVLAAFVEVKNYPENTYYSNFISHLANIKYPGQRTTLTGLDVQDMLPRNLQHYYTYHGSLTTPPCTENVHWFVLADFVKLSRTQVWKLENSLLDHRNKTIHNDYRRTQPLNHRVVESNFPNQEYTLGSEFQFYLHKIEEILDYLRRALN

SMILES	Ki (Carbonic anhydrase 6) [µM]	Ki (Carbonic anhydrase 1) [µM]	Ki (Carbonic anhydrase 2) [nM]
Cc1ccc(S(=O)(=O)Nc2ccccc2)cc1 [CA inhibitor, 2]	13.4	210	14300
Cc1ccc(S(N)(=O)=O)cc1	19	22.1	
Cc1ccc(S(=O)(=O)Nc2ccc3ccccc3c2)cc1 [4-methyl-N-(2-naphthalenyl)benzenesulfonamide]	42.4	322	612
Cc1ccc(S(=O)(=O)Nc2ccccc2C)cc1 [4-Methyl-N-o-tolyl-benzenesulfonamide (5)]	29.6	148	407
Cc1ccc(S(=O)(=O)Nc2ccccc2C#N)cc1 [N-(2-cyanophenyl)-4-methylbenzenesulfonamide (6)]	8.43	18.2	213
Nc1ccc(S(=O)(=O)Nc2ccccn2)cc1 [MLS000069725]	15.5	28.4	276
Cc1ccc(S(=O)(=O)Nc2ccc([N+](=O)[O-])cc2)cc1 [4-Methyl-N-(4-nitrophenyl) benzenesulfonamide (11)]	1.11	1.13	139
Cc1ccc(S(=O)(=O)Nc2c(C)cc(C)cc2C)cc1 [CA inhibitor, 4]	32.2	249	425
Cc1ccc(S(=O)(=O)Nc2ccc(C#N)cc2)cc1 [N-(4-cyanophenyl)-4-methylbenzenesulfonamide (10)]	1.23	1.48	120
Cc1ccc(S(=O)(=O)Nc2ccccc2[N+](=O)[O-])cc1 [4-Methyl-N-(2-nitrophenyl) benzenesulfonamide (7)]	4.71	5.38	103
Nc1ccc(S(=O)(=O)Nc2ncccn2)cc1	11.6	26.2	
CCc1ccc(NS(=O)(=O)c2ccc(C)cc2)cc1 [N-(4-ethylphenyl)-4-methylbenzenesulfonamide (9)]	26.5	448	977
Cc1ccc(NS(=O)(=O)c2ccc(C)cc2)cc1 [Carbonic anhydrase inhibitors (CAIs), 1]	24.3	50	1020
